Converted amounts (≈) assume the structure as drawn. The source made the active and inactive calls. The calls are words filed in the database; no cut-off is given here.
Key:
Staphylococcus aureus [1] = experiment: Antibacterial activity against drug-resistant Staphylococcus aureus S18713 by gradient plate test; format: functional
Plasmodium berghei [2] = experiment: Antimalarial activity against trophozoite-induced Plasmodium berghei infected in mouse assessed as daily dose required to suppression of 90% parasite infection administered with diet for 6 days; format: functional
Plasmodium gallinaceum [3] = experiment: Antimalarial activity against sporozoite-induced Plasmodium gallinaceum infected in white leghorn chicken assessed as disease cure from parasite infection at 80 mg/kg, sc administered 72 hrs after infection; format: functional, organism-based; parameters: dose 80 mg/kg
Plasmodium gallinaceum [4] = experiment: Antimalarial activity against trophozoite-induced Plasmodium gallinaceum infected in white leghorn chicken assessed as increase in mean survival days of host at 160 mg/kg, sc administered 72 hrs after infection relative to control; format: functional; settings: route subcutaneous
Plasmodium gallinaceum [5] = experiment: Antimalarial activity against trophozoite-induced Plasmodium gallinaceum infected in white leghorn chicken assessed as increase in mean survival days of host at 40 mg/kg, sc administered 72 hrs after infection relative to control; format: functional; settings: route subcutaneous
Plasmodium falciparum [6] = experiment: Antimalarial activity against chloroquine-susceptible, pyrimethamine-resistant Plasmodium falciparum Malayan Camp infected in Aotus trivirgatus owl monkey model assessed as cure from parasite infection at 0.39 to 5 mg/kg, po qd for 7 days relative to control; format: functional; settings: dose mg/kg 0.39-5
Plasmodium berghei [7] = experiment: Antimalarial activity against Plasmodium berghei infected in mouse assessed as increase in mean survival days of host at 10 mg/kg, sc administered 72 hrs after infection relative to control; format: functional; settings: route subcutaneous
Plasmodium gallinaceum [8] = experiment: Antimalarial activity against trophozoite-induced Plasmodium gallinaceum infected in white leghorn chicken assessed as increase in mean survival days of host at 10 mg/kg, sc administered 72 hrs after infection relative to control; format: functional; settings: route subcutaneous
Plasmodium berghei [9] = experiment: Ratio of quinine hydrochloride SD90 to compound SD90 for trophozoite-induced Plasmodium berghei infected in mouse assessed as daily dose required to suppression of 90% parasite infection administered with diet for 6 days; format: functional
Plasmodium falciparum [10] = experiment: Antimalarial activity against chloroquine-susceptible, pyrimethamine-resistant Plasmodium falciparum Malayan Camp infected in Aotus trivirgatus owl monkey model assessed as cure from parasite infection at >2.5 mg/kg, po qd for 7 days relative to control; format: functional
Plasmodium gallinaceum [11] = experiment: Antimalarial activity against trophozoite-induced Plasmodium gallinaceum infected in white leghorn chicken assessed as increase in mean survival days of host at 320 mg/kg, sc administered 72 hrs after infection relative to control; format: functional; settings: route subcutaneous
Plasmodium falciparum [12] = experiment: Antimalarial activity against pyrimethamine-sensitive Plasmodium falciparum Vietnam Oak Knoll infected in Aotus trivirgatus owl monkey model assessed as cure from parasite infection at 0.098 to 1.56 mg/kg, po qd for 7 days relative to control; format: functional; settings: dose mg/kg 0.098-1.56
Plasmodium gallinaceum [13] = experiment: Antimalarial activity against trophozoite-induced Plasmodium gallinaceum infected in white leghorn chicken assessed as increase in mean survival days of host at 80 mg/kg, sc administered 72 hrs after infection relative to control; format: functional; settings: route subcutaneous
Enterococcus faecalis = experiment: Antibacterial activity against Streptococcus faecalis MGH-2 by gradient plate test; format: functional
Plasmodium falciparum [14] = experiment: Antimalarial activity against pyrimethamine-sensitive Plasmodium falciparum Vietnam Oak Knoll infected in Aotus trivirgatus owl monkey model assessed as cure from parasite infection at 0.6 mg/kg, po qd for 7 days relative to control; format: functional
Plasmodium berghei [15] = experiment: Antimalarial activity against Plasmodium berghei infected in mouse assessed as disease cure from parasite infection at 40 mg/kg, sc administered 72 hrs after infection; format: functional, organism-based; parameters: dose 40 mg/kg
Plasmodium berghei [16] = experiment: Antimalarial activity against Plasmodium berghei infected in mouse assessed as disease cure from parasite infection at 20 mg/kg, sc administered 72 hrs after infection; format: functional, organism-based; parameters: dose 20 mg/kg
Plasmodium berghei [17] = experiment: Antimalarial activity against Plasmodium berghei infected in mouse assessed as increase in mean survival days of host at 5 mg/kg, sc administered 72 hrs after infection relative to control; format: functional; settings: route subcutaneous
Plasmodium gallinaceum [18] = experiment: Antimalarial activity against sporozoite-induced Plasmodium gallinaceum infected in white leghorn chicken assessed as disease cure from parasite infection at 160 mg/kg, sc administered 72 hrs after infection; format: functional, organism-based; parameters: dose 160 mg/kg
Escherichia coli = experiment: Antibacterial activity against Escherichia coli Vogel by gradient plate test; format: functional
Plasmodium berghei [19] = experiment: Antimalarial activity against Plasmodium berghei infected in mouse assessed as increase in mean survival days of host at 2.5 mg/kg, sc administered 72 hrs after infection relative to control; format: functional; settings: route subcutaneous
Plasmodium berghei [20] = experiment: Antimalarial activity against cycloguanil-resistant Plasmodium berghei assessed as drug resistance; format: functional, organism-based
Plasmodium berghei [21] = experiment: Antimalarial activity against chloroquine-resistant Plasmodium berghei assessed as drug resistance; format: functional, organism-based
Plasmodium gallinaceum [22] = experiment: Antimalarial activity against trophozoite-induced Plasmodium gallinaceum infected in white leghorn chicken assessed as disease cure from parasite infection at 160 mg/kg, sc administered 72 hrs after infection; format: functional, organism-based; parameters: dose 160 mg/kg
Shigella sonnei = experiment: Antibacterial activity against Shigella sonnei C-10 by gradient plate test; format: functional
Plasmodium berghei [23] = experiment: Antimalarial activity against Plasmodium berghei infected in mouse assessed as disease cure from parasite infection at 320 mg/kg, sc administered 72 hrs after infection; format: functional, organism-based; parameters: dose 320 mg/kg
Plasmodium berghei [24] = experiment: Antimalarial activity against Plasmodium berghei infected in mouse assessed as disease cure from parasite infection at 160 mg/kg, sc administered 72 hrs after infection; format: functional, organism-based; parameters: dose 160 mg/kg
Plasmodium berghei [25] = experiment: Antimalarial activity against Plasmodium berghei infected in mouse assessed as disease cure from parasite infection at 640 mg/kg, sc administered 72 hrs after infection; format: functional, organism-based; parameters: dose 640 mg/kg
Plasmodium berghei [26] = experiment: Antimalarial activity against Plasmodium berghei infected in mouse assessed as disease cure from parasite infection at 80 mg/kg, sc administered 72 hrs after infection; format: functional, organism-based; parameters: dose 80 mg/kg
Staphylococcus aureus [27] = experiment: Antibacterial activity against Staphylococcus aureus UC-96 by gradient plate test; format: functional
Plasmodium gallinaceum [28] = experiment: Antimalarial activity against trophozoite-induced Plasmodium gallinaceum infected in white leghorn chicken assessed as increase in mean survival days of host at 20 mg/kg, sc administered 72 hrs after infection relative to control; format: functional; settings: route subcutaneous
Pseudomonas aeruginosa = experiment: Antibacterial activity against Pseudomonas aeruginosa 28 by gradient plate test; format: functional
Plasmodium berghei [29] = experiment: Antimalarial activity against Plasmodium berghei infected in mouse assessed as increase in mean survival days of host at 1.25 mg/kg, sc administered 72 hrs after infection relative to control; format: functional; settings: route subcutaneous
Plasmodium gallinaceum [30] = experiment: Antimalarial activity against trophozoite-induced Plasmodium gallinaceum infected in white leghorn chicken assessed as disease cure from parasite infection at 320 mg/kg, sc administered 72 hrs after infection; format: functional, organism-based; parameters: dose 320 mg/kg
Plasmodium gallinaceum [31] = experiment: Antimalarial activity against sporozoite-induced Plasmodium gallinaceum infected in white leghorn chicken assessed as disease cure from parasite infection at 320 mg/kg, sc administered 72 hrs after infection; format: functional, organism-based; parameters: dose 320 mg/kg

In the case of Nc1nc(N)c2cc(Sc3ccc4ccccc4c3)ccc2n1, the MIC (Staphylococcus aureus [1]) is reported as < 0.25 µg/mL, the SD90 (Plasmodium berghei [2]) is reported as 0.08 mg/kg/day and the Activity (Plasmodium gallinaceum [3]) is reported as “Active”. The MST (Plasmodium gallinaceum [4]) was 15 days, the MST (Plasmodium gallinaceum [5]) was 12.4 days and the Activity (Plasmodium falciparum [6]) was >50%. It also gave an MST (Plasmodium berghei [7]) of 11.3 days, an MST (Plasmodium gallinaceum [8]) of 6.2 days and a Ratio (Plasmodium berghei [9]) of 880. For the same compound, the Activity (Plasmodium falciparum [10]) was >50%, the MST (Plasmodium gallinaceum [11]) was 16 days and the Activity (Plasmodium falciparum [12]) was >50%. The MST (Plasmodium gallinaceum [13]) was 16.2 days, the MIC (Enterococcus faecalis) was < 0.25 µg/mL and the Activity (Plasmodium falciparum [14]) was >50%. For the same compound, the Activity (Plasmodium berghei [15]) was “Active”, the Activity (Plasmodium berghei [16]) was “Active” and the MST (Plasmodium berghei [17]) was 6.5 days. The Activity (Plasmodium gallinaceum [18]) was “Active”, the MIC (Escherichia coli) was < 0.25 µg/mL and the MST (Plasmodium berghei [19]) was 5.3 days. For the same compound, the Activity (Plasmodium berghei [20]) was “Active”, the Activity (Plasmodium berghei [21]) was “inactive” and the Activity (Plasmodium gallinaceum [22]) was “Active”. The MIC (Shigella sonnei) was 2.5 µg/mL (≈ 7.85 µM), the Activity (Plasmodium berghei [23]) was “Active” and the Activity (Plasmodium berghei [24]) was “Active”. For the same compound, the Activity (Plasmodium berghei [25]) was “Active”, the Activity (Plasmodium berghei [26]) was “Active” and the MIC (Staphylococcus aureus [27]) was < 0.25 µg/mL. For the same compound, the MST (Plasmodium gallinaceum [28]) was 7.8 days, the MIC (Pseudomonas aeruginosa) was > 25 µg/mL and the MST (Plasmodium berghei [29]) was 2.9 days. The Activity (Plasmodium gallinaceum [30]) was “Active” and the Activity (Plasmodium gallinaceum [31]) was “Active”.
